Reference: patent US8314130B2, “Compounds inclunding substituted pyridines for inflammation and immune-related uses” (Synta Pharmaceuticals Corp., priority 2008, dated 2012)
Where two headings read alike, the source gives them in different places.

What was measured:
[1] = system: IL-2; assay: Inhibition of IL-2 production in PHA-activated Jurkat cells (1% FBS), ELISA; type: cell-based; details: Homo sapiens, read-out: IL-2 current inhibition Jurkat/PHA/1% FBS IC50
Procedure: Jurkat cells were placed in a 96 well plate (0.5 million cells per well in 1% FBS medium), and then a test compound of this invention was added at different concentrations. After 10 minutes, the cells were activated with PHA (final concentration 2.5 μg/mL) and incubated for 20 hours at 37° C. under 5% CO2. The final volume was 200 Following incubation, the cells were centrifuged, and the supernatants collected and stored at −70° C. prior to assaying for IL-2 production. A commercial ELISA kit (IL-2 Eli-pair, Diaclone Research, Besancon, France) was used to detect production of IL-2, from which dose response curves were obtained. The IC50 value was calculated as the concentration at which 50% of maximum IL-2 production after stimulation was inhibited versus a non-stimulation control.

[2] = target: T1, CRACM1/STIM1 (Homo sapiens, UniProt Q96D31); assay: ICRAC current inhibition in CRACM1/STIM1-CHOK1 cells (patch clamp); type: cell-based; details: activity class; for inhibition at 0.5 µM: 500 nM
T1 construct: Full length human Stim1, CracM1, CracM2 and CracM3 cDNA
Procedure: Manual patch clamp experiments are conducted in the tight-seal whole-cell configuration at room temperature (21-25° C.). Patch pipettes are fashioned from borosilicate glass capillary tubes and have resistances between 2-4 MO after filling with standard intracellular solution. High resolution current recordings are acquired with a computer-based patch clamp amplifier system (EPC-10, HEKA, Lambrecht, Germany). All voltages are corrected for a liquid junction potential of 10 mV between external and internal solutions with glutamate as the intracellular anion. Currents are filtered at 2.9 kHz and digitized at 10 μs intervals. Capacitive currents and series resistance are determined and corrected before each voltage ramp using the automatic capacitance compensation of the EPC-10.
Automated patch clamp experiments are conducted with the QPatch 16 (Sophion Bioscience, Ballerup, Denmark) at room temperature (21-25° C.). Immediately following the establishment of giga-seal whole-cell configuration, the cells membrane potential is clamped at 0 mV. Voltage ramps of 50 ms duration spanning the voltage range of −100 to +100 mV are then stimulated at a rate of 0.33 Hz. Currents are filtered at 2.9 kHz and digitized at 200 μs intervals. Capacitive currents and series resistance are determined and corrected before each voltage ramp using the automatic capacitance compensation.
In general, a whole cell patch clamp method is used to examine the effects of a compound of the invention on a channel(s) that mediates ICRAC. In such experiments, a baseline ICRAC measurement is established within the first 70 voltage ramps, or 140 seconds, for a patched cell. Then the cells are perfused with the compound to be tested and the effect of the compound on ICRAC is measured for at least an additional 440 to 500 seconds. A compound that modulates ICRAC (e.g., inhibits) is a compound that is useful in the invention for modulating CRAC ion channel activity.
ICRAC currents are measured using 50 msec voltage ramps between −100 mV to +100 mV. The voltage ramps are stimulated every 2 seconds for the first 70 sweeps, then every 5 seconds for the remainder of the experiment. The membrane potential is held at 0 mV between the test ramps. In a typical experiment, the peak inward currents will develop within 50-100 seconds. Once the ICRAC current is stabilized, the cells are perfused with a test compound in the extracellular solution for at least an additional 500 seconds.
Off-line analysis with the Heka PatchMaster software is used to separate the ICRAC membrane current from the cells basal background currents. In a typical recording, InsP3 stimulated ICRAC currents begin to develop in 6 to 12 seconds after whole cell is established. Therefore, the first 1-4 voltage ramps represent the basal membrane currents in the absence of ICRAC and the average value is subtracted from all subsequent traces. The current value at −80 mV for each ramp trace is then measured and plotted against time. The resulting current versus time data is exported into a Microsoft Excel spreadsheet. The % ICRAC inhibition in each cell is calculated by comparing the amount of current just prior to the compound perfusion to the amount of current after the cells has been perfused with the compound for 440-500 seconds. The IC50 value and Hill coefficient for each compound is estimated by fitting all the individual data points to a single-site Hill equation.
TREx™-CHO cells were transfected with human Stim1 (recombinant DNA in pcDNA4/TO/myc-His™ A with a myc epitope tag in the N-terminal) and either CracM1, CracM2 or CracM3 (recombinant DNA in pcDNA 3.1 with a HA epitope tag in the N-terminal). Stably expressing cells were selected by growing the transfected cells in antibiotics for two to three weeks. Individual cell clones were isolated via serial dilution. […]

T1 sequence (Q96D31 whole entry): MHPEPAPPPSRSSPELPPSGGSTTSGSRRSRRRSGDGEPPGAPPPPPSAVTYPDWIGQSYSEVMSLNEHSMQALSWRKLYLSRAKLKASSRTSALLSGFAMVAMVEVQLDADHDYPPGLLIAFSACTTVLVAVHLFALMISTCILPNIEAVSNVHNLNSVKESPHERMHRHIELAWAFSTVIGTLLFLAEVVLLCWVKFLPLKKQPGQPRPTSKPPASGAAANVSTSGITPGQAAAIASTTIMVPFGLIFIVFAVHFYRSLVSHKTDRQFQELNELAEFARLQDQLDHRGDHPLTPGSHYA

Cc1sc(-c2ncco2)cc1-c1cnc(NC(=O)c2c(F)cccc2F)cn1 [S]
IC50 ([1]; activity class): < 50 nM

Cc1sc(CCc2cccnc2)nc1-c1ccc(NC(=O)c2c(F)cccc2F)nc1 [E]
IC50 ([1]; activity class): 50 to 100 nM

Cc1sc(-c2cccnc2)nc1-c1ccc(NC(=O)c2c(F)cccc2F)cc1 [F]
IC50 ([1]; activity class): < 50 nM
inhibition at 0.5 µM [2]: 50 to 70%

CCc1sc(-c2ccc(C)nc2)nc1-c1ccc(NC(=O)c2cccc(F)c2C)nc1 [Compound A7]
IC50 ([1]; numeric values, unit inferred): 21 nM

Cc1sc(-c2ncc(-c3cccnc3)s2)cc1-c1ccc(NC(=O)c2c(F)cccc2F)nc1 [I]
IC50 ([1]; activity class): > 100 nM

CC(C)c1sc(-c2cccnc2)cc1-c1cnc(NC(=O)c2c(F)cccc2F)cn1 [Compound T]
IC50 ([1]; activity class): < 50 nM

Cc1sc(-c2ncco2)cc1-c1ccc(NC(=O)c2c(F)cccc2F)cc1 [J]
IC50 ([1]; activity class): < 50 nM

Cc1sc(C#Cc2cccnc2)cc1-c1ccc(NC(=O)c2c(F)cccc2F)cc1 [Q]
IC50 ([1]; activity class): < 50 nM

Cc1cc(C(=O)c2ccccc2)sc1-c1ccc(NC(=O)c2c(F)cccc2F)cc1 [A]
IC50 ([1]; activity class): < 50 nM
inhibition at 0.5 µM [2]: 70 to 100%

Cc1sc(-c2ccccn2)nc1-c1ccc(NC(=O)c2c(F)cccc2F)nc1 [Compound 1, 2,6-Difluoro-N-(5-(5-methyl-2-(pyridin-2-yl)thiazol-4-yl)pyridin-2-yl)benzamide]
IC50 ([1]; activity class): < 50 nM
inhibition at 0.5 µM [2]: 50 to 70%

CCc1sc(-c2cnn(C)c2)nc1-c1cnc(NC(=O)c2c(F)cccc2F)cn1 [Compound A10]
IC50 ([1]; numeric values, unit inferred): 40 nM

CC(C)(O)c1sc(-c2cccnc2)cc1-c1cnc(NC(=O)c2c(F)cccc2F)cn1 [Compound 12, 2,6-difluoro-N-(5-(2-(2-hydroxypropan-2-yl)-5-(pyridin-3-yl)thiophen-3-yl)pyrazin-2-yl)benzamide]
IC50 ([1]; activity class): > 100 nM

C=C(C)c1sc(-c2cccnc2)cc1-c1ccc(NC(=O)c2c(F)cccc2F)nc1 [Compound 10, 2,6-difluoro-N-(5-(2-(prop-1-en-2-yl)-5-(pyridin-3-yl)thiophen-3-yl)pyridin-2-yl)benzamide]
IC50 ([1]; activity class): < 50 nM
inhibition at 0.5 µM [2]: 50 to 70%

Cc1sc(-c2cnn(C)c2)nc1-c1ccc(NC(=O)c2c(F)cccc2F)nc1 [Compound 4, 2,6-Difluoro-N-(5-(5-methyl-2-(1-methyl-1H-pyrazol-4-yl)thiazol-4-yl)pyridin-2-yl)benzamide]
IC50 ([1]; activity class): < 50 nM
inhibition at 0.5 µM [2]: < 50%

Cc1sc(C(=O)c2cccnc2)cc1-c1ccc(NC(=O)c2c(F)cccc2F)cc1 [O]
IC50 ([1]; activity class): < 50 nM
ICRAC current inhibition CRACM1/STIM1-CHOK1 % Inhibition at 500 nM [2]: High

Cc1sc(-c2cccnc2)nc1-c1ccc(NC(=O)c2c(F)cccc2F)nc1 [Compound 3, 2,6-Difluoro-N-(5-(5-methyl-2-(pyridin-3-yl)thiazol-4-yl)pyridin-2-yl)benzamide]
IC50 ([1]; activity class): < 50 nM
inhibition at 0.5 µM [2]: 70 to 100%

CC(C)c1sc(-c2cnn(C)c2)nc1-c1ccc(NC(=O)c2ccc(F)cc2F)nc1 [Compound 5, 2,4-Difluoro-N-(5-(5-isopropyl-2-(1-methyl-1H-pyrazol-4-yl)thiazol-4-yl)pyridin-2-yl)benzamide]
IC50 ([1]; activity class): > 100 nM

Cc1sc(C(=O)c2ccncc2)cc1-c1ccc(NC(=O)c2c(F)cccc2F)cc1 [P]
IC50 ([1]; activity class): < 50 nM

CC(C)(O)c1sc(-c2cccnc2)cc1-c1ccc(NC(=O)c2c(F)cccc2F)cc1 [N]
IC50 ([1]; activity class): < 50 nM

CCc1sc(-c2cccnc2C)nc1-c1ccc(NC(=O)c2cccc(F)c2C)nc1 [Compound A9]
IC50 ([1]; numeric values, unit inferred): 28 nM

CC(C)(O)c1sc(-c2cccnc2)cc1-c1ccc(NC(=O)c2c(F)cccc2F)nc1 [Compound 9, 2,6-difluoro-N-(5-(2-(2-hydroxypropan-2-yl)-5-(pyridin-3-yl)thiophen-3-yl)pyridin-2-yl)benzamide]
IC50 ([1]; activity class): > 100 nM

CCc1sc(-c2ccc(N)nc2)nc1-c1ccc(NC(=O)c2cccc(F)c2C)nc1 [Compound A3]
IC50 ([1]; numeric values, unit inferred): 16 nM

CC(C)c1sc(-c2cccnc2)cc1-c1ccc(NC(=O)c2c(F)cccc2F)nc1 [Compound 11, 2,6-difluoro-N-(5-(2-isopropyl-5-(pyridin-3-yl)thiophen-3-yl)pyridin-2-yl)-benzamide]
IC50 ([1]; activity class): < 50 nM
inhibition at 0.5 µM [2]: < 50%

Cc1sc(-c2cnn(C)c2)nc1-c1ccc(NC(=O)c2c(F)cccc2F)cc1 [H]
IC50 ([1]; activity class): < 50 nM
inhibition at 0.5 µM [2]: 70 to 100%

Cc1cccc(F)c1C(=O)Nc1ccc(-c2nc(-c3cnn(C)c3)sc2C)cn1 [Compound A5]
IC50 ([1]; numeric values, unit inferred): 77 nM

Cc1sc(-c2ccccn2)nc1-c1ccc(NC(=O)c2c(F)cccc2F)cc1 [Compound 2, 2,6-Difluoro-N-(4-(5-methyl-2-(pyridin-2-yl)thiazol-4-yl)phenyl)benzamide]
IC50 ([1]; activity class): < 50 nM
inhibition at 0.5 µM [2]: 70 to 100%

Cc1sc(-c2cncn2CCN(C)C)cc1-c1ccc(NC(=O)c2c(F)cccc2F)cc1 [K]
IC50 ([1]; activity class): > 100 nM

Cc1cc(Cc2cccnc2)sc1-c1ccc(NC(=O)c2c(F)cccc2F)cc1 [Compound 7, 2,6-difluoro-N-(4-(3-methyl-5-(pyridin-3-ylmethyl)thiophen-2-yl)phenyl)benzamide]
IC50 ([1]; activity class): < 50 nM
inhibition at 0.5 µM [2]: 70 to 100%

Cc1sc(CCc2cccnc2)cc1-c1ccc(NC(=O)c2c(F)cccc2F)cc1 [R]
IC50 ([1]; activity class): < 50 nM

CC(C)c1sc(-c2cccnc2)nc1-c1ccc(NC(=O)c2ccc(F)cc2F)nc1 [D]
IC50 ([1]; activity class): 50 to 100 nM

Cc1cccc(F)c1C(=O)Nc1ccc(-c2nc(-c3ccc(N)nc3)sc2C)cn1 [Compound A8]
IC50 ([1]; numeric values, unit inferred): 26 nM

Cc1cc(C(=O)c2cccnc2)sc1-c1ccc(NC(=O)c2c(F)cccc2F)nc1 [B]
IC50 ([1]; activity class): < 50 nM
inhibition at 0.5 µM [2]: 50 to 70%

Cc1sc(-c2ccc(N)nc2)nc1-c1cnc(NC(=O)c2c(F)cccc2F)cn1 [Compound A4]
IC50 ([1]; numeric values, unit inferred): 17 nM

C=C(C)c1sc(-c2cccnc2)cc1-c1cnc(NC(=O)c2c(F)cccc2F)cn1 [Compound 13, 2,6-difluoro-N-(5-(2-(prop-1-en-2-yl)-5-(pyridin-3-yl)thiophen-3-yl)pyrazin-2-yl)benzamide]
IC50 ([1]; activity class): 50 to 100 nM

CC(=O)c1cc(-c2ccc(NC(=O)c3c(F)cccc3F)cc2)c(C)s1 [L]
IC50 ([1]; activity class): > 100 nM

CCc1sc(-c2cnn(C)c2)nc1-c1ccc(C(=O)Nc2c(C)cccc2F)cc1 [Compound A12]
IC50 ([1]; numeric values, unit inferred): 44 nM

Cc1sc(-c2cnco2)nc1-c1ccc(NC(=O)c2c(F)cccc2F)cc1 [G]
IC50 ([1]; activity class): < 50 nM

CCc1sc(-c2cccnc2)nc1-c1ccc(NC(=O)c2cccc(F)c2C)nc1 [Compound A2]
IC50 ([1]; numeric values, unit inferred): 10 nM

O=C(Nc1ccc(-c2cc(-c3cccnc3)sc2-c2cccnc2)cc1)c1c(F)cccc1F [Compound 16, N-(4-(2,5-di(pyridin-3-yl)thiophen-3-yl)phenyl)-2,6-difluorobenzamide]
IC50 ([1]; activity class): < 50 nM

COC(=O)c1cc(NC(=O)c2c(F)cccc2F)ccc1-c1cc(-c2cccnc2)sc1CO [M]
IC50 ([1]; activity class): > 100 nM

Cc1cc(-c2nc(-c3ccc(NC(=O)c4cccc(F)c4C)nc3)c(C)s2)no1 [Compound A6]
IC50 ([1]; numeric values, unit inferred): 21 nM

Cc1sc(-c2cccnc2)cc1-c1cnc(NC(=O)c2c(F)cccc2F)cn1 [Compound 17, 2,6-difluoro-N-(5-(2-methyl-5-(pyridin-3-yl)thiophen-3-yl)pyrazin-2-yl)benzamide]
IC50 ([1]; activity class): < 50 nM

Cc1sc(-c2cnccn2)nc1-c1ccc(NC(=O)c2cccc(F)c2C)nc1 [Compound A11]
IC50 ([1]; numeric values, unit inferred): 43 nM
